Usually IC50 stands for the concentration that inhibits the measured activity by half.

SMILES strings stand for the structures.

The nature of data set [1]: Determination of Maximum Tolerated Dose (MTD). The note with it: female, C57BL/6, mouse, in vivo, po. The protocol:
The maximum tolerated dose of the vitamin D3 compounds of the invention were determined in eight week-old female C57BL/6 mice (3 mice/group) dosed orally (0.1 ml/mouse) with various concentrations of Vitamin D3 analogs daily for four days. Analogs were formulated in miglyol for a final concentration of 0.01, 0.03, 0.1 0.3, 1, 3, 10, 30, 100 and 300 μg/kg when given at 0.1 ml/mouse p.o. daily. Blood for serum calcium assay was drawn by tail bleed on day five, the final day of the study.

A further data set deals with IFN-γ production. Put plainly: IFN-γ production in the mixed leukocyte response (MLR). It counts as cell-based. Particulars: 120 h; allogeneic PBMC from 2 donors, 5 days, ELISA; read-out: INF-γ IC50. As for the experimental part: Immature dendritic cells (DC) were prepared as described in Romani, N. et al. (Romani, N. et al. (1996) J. Immunol. Meth. 196:137). IFN-γ production by allogeneic T cell activation in the mixed leukocyte response (MLR) was determined as described in Penna, G., et al., J Immunol., 164: 2405-2411 (2000).
Briefly, peripheral blood mononuclear cells (PBMC) were separated from buffy coats by Ficoll gradient and the same number (3×10^5) of allogeneic PBMC from 2 different donors were co-cultured in 96-well flat-bottom plates. The vitamin D3 compounds were added to each of the cultures.

The subject of a further data set is ECV. Kind of data set: Proliferation assay using bladder cancer cell lines, ECV. It counts as cell-based, human. Particulars: Homo sapiens; 72 h culture, CyQuant proliferation assay.
The next data set deals with RT112. Kind of data set: Proliferation assay using bladder cancer cell lines, RT112. It counts as cell-based, human. Particulars: Homo sapiens, 72 h culture, CyQuant proliferation assay. The protocol:
(§1) Bladder cancer cell lines (T24, RT112, HT1376 and RT4 are human bladder cancer cell lines; NHEK are normal human keratinocytes) were obtained from the European Collection of Cell Cultures (Salisbury, UK). Cells were plated at 3×10^3 per well, in flat bottomed 96-well plates in 100 μl of DMEM medium containing: 5% Fetal Clone I, 50 μg/l gentamicin, 1 mM sodium pyruvate and 1% non-essential amino acids. After culturing for 24 h at 37° C. in 5% CO2, to allow cells to adhere to the plates, VDR ligands (compounds (2), (4), (5) and other vitamin D3 analogs as shown in Table 4) were added at concentrations ranging from 100 μM to 0.3 μM in 100 μl of above-mentioned complete medium. After a further 72 h of culture, cell proliferation was measured using a fluorescence-based proliferation assay kit. (CyQuant Cell Proliferation Assay Kit, Molecular Probes, Eugene, Oreg., USA). The IC50 was calculated from the regression curve of the titration data.

The test system of another data set is HT 1376. Kind of data set: Proliferation assay using bladder cancer cell lines, HT1376. It counts as cell-based, human. The note with it: Homo sapiens, HT-1376; 72 h culture, CyQuant proliferation assay. As for the experimental part: as §1
Another data set has as its system RT4. Put plainly: Proliferation assay using bladder cancer cell lines, RT4. Type of data set: cell-based, human. Particulars: Homo sapiens, 72 h culture, CyQuant proliferation assay. The protocol: as §1
In another data set the test system is NHEK. Kind of data set: Proliferation assay, NHEK normal human keratinocytes. It counts as cell-based. The note with it: Homo sapiens, NHEK; 72 h culture, CyQuant proliferation assay. The protocol: as §1
In a further data set the test system is Human BPH cells. Kind of data set: BPH cell proliferation assay (testosterone-induced). The note with it: 48 h. Type of data set: cell-based. The protocol:
Human BPH cells, prepared, maintained and used as previously described in Crescioli C, et al. Journal of Clinical and Endocrinology Metabolism (2000) 85 p 2576-2583, were obtained from prostate tissues derived from 5 patients, who underwent suprapubic adenomectomy for BPH, after informed consent and approval by the Local Ethical Committee.
For all cell proliferation assays, 4×10^4 BPH cells were seeded onto 12-well plates in their growth medium, starved in red- and serum-free medium containing 0.1% BSA for 24 h, and then treated with specific stimuli for 48 h. Cells in phenol red- and serum-free medium containing 0.1% BSA were used as controls. Thereafter, cells were trypsinized, and each experimental point was derived from hemocytometer counting, averaging at least six different fields for each well, as previously reported (see Crescioli C, et al. Journal of Clinical and Endocrinology Metabolism (2000) 85 p 2576-2583).
Growth assays were also carried out using a fixed concentration of androgens (10 nM) with or without vitamin-D analogs (1 nM, 10 nM) or the anti-androgens finasteride (F, 1 nM) and cyproterone acetate (Cyp, 100 nM. Growth assays were also performed using a fixed concentration of T (10 nM) or GFs (10 ng/ml) with or without the vitamin-D analogs. (10 nM).
In the same experiment, each experimental point was repeated in triplicate or quadruplicate and experiments were performed 3 times. Results are expressed as % variation (mean±SEM) over the maximal T or GF-induced stimulation.

Data set [2] can be described thus: MTD in CD1 mouse (highest non-hypercalcemic dose). The note with it: in vivo.
The subject of data set [3] is human stromal bladder cells. Kind of data set: Inhibition of basal human bladder cell growth. It counts as cell-based. The text has this: The Inventors confirmed the presence of vitamin D receptors (VDRs), as previously reported in the literature, on these cells (see below in FIG. 3).
(§2) The maximum tolerated dose (MTD) in rats is also listed for each compound (Table 7).

Data set [4] in a line: Maximum tolerated dose (MTD) in rats (Table 7). The note with it: rat, in vivo.
Description: as §2

As for `C=C1/C(=C\C=C2/CCC[C@]3(C)C(C(C)CC#CC(C)(C)O)=CCC23)CC(OC(C)=O)C[C@@H]1OC(C)=O` (some centres unmarked) [(7), 1,3-Di-O-acetyl-1,25-dihydroxy-16-ene-23-yne-cholecalciferol], the MTD at 4 days in [1] stood at 0.01 mg/kg. The IC50 in the data set with IFN-γ production is 0.051 nM; in the data set on ECV, 27.7 µM; in the data set with RT112 (RT-112, 72 h), 3 µM; in the data set with HT 1376, > 100 µM; with RT4 (RT-4, 72 h) it was 80 µM; in the data set on NHEK, 4.8 µM. For the same compound, in the data set on Human BPH cells, the IC50 was 42.7 µM. In addition, in data set [2], the MTD was 0.01 mg/kg.

Take `C=C1/C(=C\C=C2/CCC[C@]3(C)C(C(C)C/C=C/C(C)(C)O)=CCC23)CC(OC(C)=O)C[C@@H]1OC(C)=O` (some centres unmarked) [(9), 1,3-Di-O-acetyl-1,25-dihydroxy-16,23E-diene-cholecalciferol]: the IC50 in the data set with ECV is 58.7 µM; in the data set on RT112 (RT-112, 72 h) it was 14 µM; with HT 1376, > 100 µM; in the data set on RT4 (RT-4, 72 h), 82 µM; with NHEK it was 5.1 µM; in the data set with Human BPH cells, 0.00912 µM. In addition, in data set [2], the MTD is 0.003 mg/kg.

In the case of `C=C1/C(=C\C=C2/CCC[C@]3(C)C(C(C)CCCC(C)(C)O)=CCC23)CC(OC(C)=O)C[C@@H]1OC(C)=O` (some centres unmarked) [(11), 1,3-Di-O-acetyl-1,25-dihydroxy-16-ene-cholecalciferol], the IC50 with ECV was 59.9 µM; in the data set on RT112 (RT-112, 72 h), 18 µM; in the data set with HT 1376, > 100 µM; in the data set with RT4 (RT-4, 72 h), 75 µM; in the data set with NHEK, 5 µM; in the data set with Human BPH cells, 0.000759 µM. The MTD in data set [2] was 0.001 mg/kg.

As for `C=C1/C(=C\C=C2/CCC[C@]3(C)C(C(C)CC#CC(O)(C(F)(F)F)C(F)(F)F)=CCC23)CC(OC(C)=O)C[C@@H]1OC(C)=O` (some centres unmarked) [(14), 1,3-Di-O-acetyl-1,25-dihydroxy-16-ene-23-yne-26,27-hexafluoro-cholecalciferol], in [1], the MTD at 4 days was found to be 0.01 mg/kg. The concentration for half-maximal inhibition (IC50) was 0.0273 nM with IFN-γ production; > 100 µM in the data set on ECV; 26 µM in the data set with RT112 (RT-112, 72 h); > 100 µM in the data set with HT 1376; 19 µM in the data set with RT4 (RT-4, 72 h); 0.98 µM in the data set on NHEK. The IC50 in the data set on Human BPH cells was 501 µM. The MTD in data set [2] is 0.01 mg/kg.

Consider `CC(=O)OC1C/C(=C/C=C2\CCC[C@]3(C)C(C(C)CCCC(C)(C)O)=CCC23)C[C@@H](OC(C)=O)C1` (some centres unmarked) [(18), 1,3-Di-O-acetyl-1,25-dihydroxy-16-ene-19-nor-cholecalciferol], for which the IC50 with ECV is 27.9 µM; in the data set on RT112 (RT-112, 72 h), 1 µM; in the data set on HT 1376 it was 96 µM; in the data set with RT4 (RT-4, 72 h), 8 µM; in the data set with NHEK it was 5.8 µM; in the data set on Human BPH cells it was 2.24e-05 µM. The MTD in [2] is 0.003 mg/kg.

In turn, `CC(=O)OC1C/C(=C/C=C2\CCC[C@@]3(C)C2CCC3C2(CC#CC(OC(C)=O)(C(F)(F)F)C(F)(F)F)CC2)C[C@@H](OC(C)=O)C1` (some centres unmarked) [(26), 1,3,25-Tri-O-acetyl-1,25-dihydroxy-20-cyclopropyl-23-yne-26,27-hexafluoro-19-nor-cholecalciferol] displayed an MTD at 4 days in data set [1] of 0.01 mg/kg. Further, the IC50 in the data set on IFN-γ production was 0.922 nM; in the data set with ECV it was 63.5 µM; in the data set with RT112 (RT-112, 72 h), 15 µM; in the data set with HT 1376 it was > 100 µM; with RT4 (RT-4, 72 h), 5 µM; with NHEK it was 32.8 µM. The half-maximal inhibitory concentration (IC50) in the data set with Human BPH cells is > 100000 µM. Further, the MTD in data set [2] is 0.01 mg/kg.

In turn, `CC(=O)OC1C/C(=C/C=C2\CCC[C@@]3(C)C2CCC3C2(CC#CC(O)(C(F)(F)F)C(F)(F)F)CC2)C[C@@H](OC(C)=O)C1` (some centres unmarked) [(27), 1,3-Di-O-acetyl-1,25-dihydroxy-20-cyclopropyl-23-yne-26,27-hexafluoro-19-nor-cholecalciferol] gave an MTD at 4 days in data set [1] of 0.01 mg/kg. Moreover, the IC50 was 0.078 nM in the data set with IFN-γ production; 25.5 µM in the data set with ECV; 43 µM in the data set on HT 1376; 2.6 µM with NHEK; 0.000794 µM in the data set with Human BPH cells. Moreover, the MTD in data set [2] is 0.01 mg/kg.

Compound `C=C1/C(=C\C=C2/CCC[C@@]3(C)C2CCC3C2(CC#CC(C)(C)O)CC2)CC(OC(C)=O)C[C@@H]1OC(C)=O` (some centres unmarked) [(29), 1,3-Di-O-acetyl-1,25-dihydroxy-20-cyclopropyl-23-yne-cholecalciferol] yielded an MTD at 4 days in [1] of 0.03 mg/kg. Also, the IC50 in the data set on IFN-γ production came out at 0.0078 nM; in the data set on ECV, 49.6 µM; in the data set with RT112 (RT-112, 72 h) it was 8 µM; in the data set on HT 1376, 80 µM; in the data set on RT4 (RT-4, 72 h), 13 µM; with NHEK it was 5.9 µM. The values for the IC50 (in [3] (Homo sapiens); in the data set with Human BPH cells) were < 10000 µM and 0.00316 µM, respectively. Besides, the MTD in data set [4] and in [2] was 0.03 mg/kg each time.

Compound `C=C1/C(=C\C=C2/CCC[C@@]3(C)C2CCC3C2(CCCC(C)(C)O)CC2)C[C@@H](OC(C)=O)C[C@@H]1OC(C)=O` (some centres unmarked) [(35), 1,3-Di-O-acetyl-1,25-dihydroxy-20-cyclopropyl-cholecalciferol] had an MTD at 4 days in data set [1] of 0.03 mg/kg. Also, the IC50 in the data set with ECV was 52.1 µM; with RT112 (RT-112, 72 h), 9 µM; with HT 1376 it was 67 µM; in the data set with RT4 (RT-4, 72 h), 10 µM; in the data set on NHEK, 4.7 µM; with Human BPH cells, 1260 µM. In addition, the MTD in data set [2] is 0.03 mg/kg.

For the compound `C=C1/C(=C\C=C2/CCC[C@@]3(C)C2CCC3C(C)CC#CC(C)(C)O)CC(OC(C)=O)C[C@@H]1OC(C)=O` (some centres unmarked) [(41), 1,3-Di-O-acetyl-1,25-dihydroxy-23-yne-cholecalciferol], in data set [1], the MTD at 4 days was determined as 0.001 mg/kg. Further, the IC50 in the data set on IFN-γ production is 0.08 nM; with ECV it was 40 µM; with RT112 (RT-112, 72 h), 8 µM; in the data set on HT 1376, > 100 µM; in the data set on RT4 (RT-4, 72 h), 85 µM; in the data set with NHEK, 4.2 µM. Moreover, in the data set on Human BPH cells, the IC50 is 0.000724 µM. Further, the MTD in [2] is 0.001 mg/kg.

For the compound `C=C1/C(=C\C=C2/CCC[C@]3(C)[C@@H]([C@H](C)CCCC(C)(C)O)CC[C@@H]23)C[C@@H](O)C[C@@H]1O` [Calcitriol, 1,25-dihydroxycholecalciferol, reference compound], in [1], the MTD at 4 days came out at 0.001 mg/kg. Also, the IC50 in the data set on IFN-γ production is 0.022 nM; in the data set on RT112 (RT-112), 19 µM; with HT 1376, 50 µM; with RT4 (RT-4), 45 µM; in the data set on NHEK, 4.9 µM; with Human BPH cells, 0.0851 µM. In addition, in data set [3] (human stromal bladder cells in culture), the “inhibiting the basal growth of bladder cells” value was “effective”. Moreover, in data set [2], the MTD was 0.001 mg/kg.

(Values after patent publication US20080064668A1, “1,3-Diacylated, 26,27-Alkyl/Haloakyl Vitamin D3 Compounds and Methods of Use Thereof” (BioXell S.p.A., priority 2003, published 2008).)
